# Experimental data reported in US20170027955A1, “EXPRESSION LEVELS OF BCL-XL, BCL2, BCL-W, AND BAD AND CANCER THERAPIES” (Constellation Pharmaceuticals, Inc., priority 2014, published 2017).
# Experiments:
# NOMO-1 cells = experiment: BETi-resistant NOMO-1 AML cells: proliferation and viability; type: cell-based
# Description: A BETi-resistant acute myeloid leukemia (AML) cell line was prepared. NOMO-1 cells were treated with increasing concentrations of (9), and when the population consisted of less than 80% live cells, viable cells were enriched by spinning over Ficoll-Paque (GE Healthcare). At the end of this procedure cells were able to proliferate in the presence of 1 μM (9), and were maintained at this dose, which is about 30-fold higher than their original GI50 (FIG. 6A). The ideal growth conditions for the BETi-tolerant cells appeared to be in the presence of ˜0.1 μM (9). While parental cells induced a robust apoptotic response in response to BETi, resistant cells grown in the presence of BETi only underwent apoptosis when the inhibitor was completely removed (FIG. 6B).
# (See e.g., Fernald and Kurokawa. Evading Apoptosis in Cancer. Trends Cell Biol. 2013 December; 23(12): 620-633.) Expression of the pro-apoptotic gene BCL2L11 (encoding BIM) was increased in parental cells upon treatment with BETi (FIG. 6C). The relative expression ratio of BCL2L11/BCL2 correlated with the apoptotic response in parental cells (FIG. 6D). In the resistant cells cultured in the presence of (9), high levels of BIM were maintained (FIG. 6C). […]
# AMO-1 cell line = experiment: Sub-G1 (apoptosis) and G0/G1 (G1 arrest) DNA content after 4 days of treatment, flow cytometry; type: cell-based
# Description: (§1) Approximately 60 hematological cancer cell lines were profiled, with representative numbers of leukemia, multiple myeloma/plasmacytoma, and lymphoma cell lines. Cells were grown in the presence of BET inhibitors, (9), (10), and (11), for 4 days. Viability was measured using a fluorescent dye (resazurin, Sigma) that measures mitochondrial fitness as a proxy for cell number. Raw fluorescence values at each compound concentration were normalized to the values in the absence of compound, and percentage growth was plotted to determine the concentration of compound at which 50% growth inhibition was achieved (GI50). Cells were then fixed and stained with propidium iodide for flow cytometric determination of cell cycle distribution. The percentage of cells with less than G0/G1 DNA content (% subG1) was used as a measurement of apoptosis. The percentage of viable cells (non-subG1 cells) with G0/G1 DNA content was measured, and the % GI for control cells was subtracted from the % GI at each compound concentration to calculate a percentage increase in G1.
# The bottom panels show the dose dependent increase in the percentage of cells with sub-G1 DNA content (apoptosis) and G0/G1 DNA content (G1 arrest) in response to 4 days of treatment with the same BET inhibitors in the AMO-1 cell line.
# [1] = tested on: panel of 245 cell lines of varying lineages; experiment: Viability of a panel of 245 cell lines treated with BET inhibitor for 3 or 4 d (Cell Titer Glo or resazurin); type: cell-based
# Description: In order to identify predictive biomarkers for phenotypic response to BET inhibition, viability data was obtained for a panel of cell lines for which gene expression data are available. A panel of 245 cell lines of varying lineages (FIG. 7) was treated with the BET bromodomain inhibitor (9) for 3 or 4 d. Viability was assessed using either Cell Titer Glo (Promega) or resazurin (Sigma). GI50 values were determined as the concentration of inhibitor that caused viability to be reduced by 50% relative to the vehicle-treated control cells. Cell lines were defined as “sensitive” if GI50 values were at or below 0.25 μM, and as “insensitive” if GI50 values were above 0.25 μM. […] Where multiple probe sets were available for a given gene, the probe set that hybridized to all transcript variants and gave the largest standard deviation across the panel of cell lines was chosen. Based on the correlations shown in FIGS. 8 and 9, cell lines expressing high levels of BCL2 were defined as those expressing an RMA value of BCL2 within the top 33% of all 245 cell lines. Similarly, cell lines expressing low levels of BCL2L1, BCL2L2, and BAD were defined as those expressing RMA values of these genes within the bottom 33% of all cell lines. […] Further enrichment was obtained by combining criteria, with the highest enrichment obtained by selecting for cell lines with high expression of BCL2 and low expression of BCL2L1 (65%±7% response rate) or high expression of BCL2 and low expression of BAD (75%±6% response rate) (FIG. 11). Similar enrichment of responsive cell lines is obtained when cell lines of hematologic origin are considered separately from those of solid tumor origin (FIG. 12-15).
# A375 cells = experiment: Growth inhibition (GI50) of A375 cells by BET inhibitor; type: cell-based, human
# Description: as §1
# The human melanoma cell line A375 is phenotypically sensitive to BET inhibition, with a GI50 of 0.10 μM for (9) (FIG. 3, top panel). To understand possible mechanisms of acquired and de novo resistance to BET inhibition, A375 cells were grown in the presence of 1 μM of (9) for approximately 90 days. […]
# [2] = tested on: BET inhibitor resistant A375 cells; experiment: Co-treatment of BET inhibitor resistant A375 cells with (9) and ABT-737 for 11 days; type: cell-based, human; details: resistant A375 cells co-treated with 1 μM (9) and increasing concentrations of ABT-737, 11 days
# Description: BCL-xL is targeted by several commercially available BCL-2 family small molecule inhibitors (Billard, C. et al. BH3 mimetics: status of the field and new developments. Mol Cancer Ther. 2013 September; 12(9):1691-700). To test whether pharmacological inhibition of BCL-xL would restore sensitivity to BET inhibition in BET inhibitor resistant A375 cells, parental and resistant cells were co-treated with 1 μM (9) or DMSO and increasing concentrations of the pan-BCL2 inhibitor ABT-737 for 11 days (Ottersdorf, T., et al. An inhibitor of Bcl-2 family proteins induces regression of solid tumours. Nature. 2005 Jun. 2; 435(7042):677-81).
structure (smiles),measurement,setting,value
Cc1sc2c(c1C)C(c1ccc(Cl)cc1)=N[C@@H](CC(N)=O)c1nnc(C)n1-2 [(9)],maintenance concentration of resistant cells (1 μM) relative to original GI50,NOMO-1 cells; BETi-resistant NOMO-1 cells proliferating in 1 μM (9),about 30 fold
same,maximal response (% sub-G1 and G0/G1 DNA content),AMO-1 cell line,equivalent
same,overall response rate (fraction of cell lines with GI50 equal to or less than 0.25 μM),[1]; all 245 cell lines,28%
same,response rate (fraction of cell lines with GI50 equal to or less than 0.25 μM),[1]; cell lines with high expression of BCL2 and low expression of BAD,75%±6%
same,response rate (fraction of cell lines with GI50 equal to or less than 0.25 μM),[1]; cell lines with high expression of BCL2 and low expression of BCL2L1,65%±7%
same,shift in GI50 of resistant clones relative to parental cells,"A375 cells; A375 clones grown in 1 μM (9) for approximately 90 days, after 11 days",relatively modest shift in GI50
same,GI50,"A375 cells; A-375, parental human melanoma cell line A375",100 nM
Cc1noc2c1-c1ccccc1C(c1ccc(Cl)cc1)=N[C@H]2CC(N)=O [(10)],maximal response (% sub-G1 and G0/G1 DNA content),AMO-1 cell line,equivalent
Cc1noc2c1-c1ccc(-c3cnn(C)c3)cc1C(c1ccc(Cl)cc1)=N[C@H]2CC(N)=O [(11)],maximal response (% sub-G1 and G0/G1 DNA content),AMO-1 cell line,equivalent
"CC1(C)CCC(CN2CCN(c3ccc(C(=O)NS(=O)(=O)c4ccc(NCC5CCOCC5)c([N+](=O)[O-])c4)c(Oc4cnc5[nH]ccc5c4)c3)CC2)=C(c2ccc(Cl)cc2)C1 [ABT-199, reference compound]",phenotypic sensitivity of resistant cells to BCL2 inhibitor,"NOMO-1 cells; resistant NOMO-1 cells, FIG. 6f",increased phenotypic sensitivity
CN(C)CC[C@H](CSc1ccccc1)Nc1ccc(S(=O)(=O)NC(=O)c2ccc(N3CCN(Cc4ccccc4-c4ccc(Cl)cc4)CC3)cc2)cc1[N+](=O)[O-] [ABT-737],restoration of sensitivity to (9),[2],restores sensitivity to (9) in a dose-dependent manner
